In patent US20030032587A1, “Urocortin peptides” (The Salk Institute for Biological Studies, priority 1995, published 2003):
Bridges are numbered along the chain shown (N, C = ends). Where no end group is shown, it is not given here. [ ]: non-standard residue; d: D form.

B1: (cyclo 29-32) [Pro10,D-Phe11, Glu29,D-Glu31, Lys32]-Ucn(10-40) (peptide)
peptide: P[dF]HLLRTLLELARTQSQREEA[dE]KNRIIFDSV-NH2
modifications: lactam 20-23; N-terminus assumed
SMILES: CC[C@H](C)[C@H](NC(=O)[C@H](CCCNC(=N)N)NC(=O)[C@H](CC(N)=O)NC(=O)[C@@H]1CCCCNC(=O)CC[C@H](NC(=O)[C@H](CCC(=O)O)NC(=O)[C@H](CCCNC(=N)N)NC(=O)[C@H](CCC(N)=O)NC(=O)[C@H](CO)NC(=O)[C@H](CCC(N)=O)NC(=O)[C@@H](NC(=O)[C@H](CCCNC(=N)N)NC(=O)[C@H](C)NC(=O)[C@H](CC(C)C)NC(=O)[C@H](CCC(=O)O)NC(=O)[C@H](CC(C)C)NC(=O)[C@H](CC(C)C)NC(=O)[C@@H](NC(=O)[C@H](CCCNC(=N)N)NC(=O)[C@H](CC(C)C)NC(=O)[C@H](CC(C)C)NC(=O)[C@H](Cc2c[nH]cn2)NC(=O)[C@@H](Cc2ccccc2)NC(=O)[C@@H]2CCCN2)[C@@H](C)O)[C@@H](C)O)C(=O)N[C@@H](C)C(=O)N[C@H](CCC(=O)O)C(=O)N1)C(=O)N[C@H](C(=O)N[C@@H](Cc1ccccc1)C(=O)N[C@@H](CC(=O)O)C(=O)N[C@@H](CO)C(=O)N[C@H](C(N)=O)C(C)C)[C@@H](C)CC
B2: (cyclo 29-32) [D-Pro10,D-Phe11, Glu29, D-Glu31, Lys32]-Ucn(10-40) (peptide)
peptide: [dP][dF]HLLRTLLELARTQSQREEA[dE]KNRIIFDSV-NH2
modifications: lactam 20-23; N-terminus assumed
SMILES: CC[C@H](C)[C@H](NC(=O)[C@H](CCCNC(=N)N)NC(=O)[C@H](CC(N)=O)NC(=O)[C@@H]1CCCCNC(=O)CC[C@H](NC(=O)[C@H](CCC(=O)O)NC(=O)[C@H](CCCNC(=N)N)NC(=O)[C@H](CCC(N)=O)NC(=O)[C@H](CO)NC(=O)[C@H](CCC(N)=O)NC(=O)[C@@H](NC(=O)[C@H](CCCNC(=N)N)NC(=O)[C@H](C)NC(=O)[C@H](CC(C)C)NC(=O)[C@H](CCC(=O)O)NC(=O)[C@H](CC(C)C)NC(=O)[C@H](CC(C)C)NC(=O)[C@@H](NC(=O)[C@H](CCCNC(=N)N)NC(=O)[C@H](CC(C)C)NC(=O)[C@H](CC(C)C)NC(=O)[C@H](Cc2c[nH]cn2)NC(=O)[C@@H](Cc2ccccc2)NC(=O)[C@H]2CCCN2)[C@@H](C)O)[C@@H](C)O)C(=O)N[C@@H](C)C(=O)N[C@H](CCC(=O)O)C(=O)N1)C(=O)N[C@H](C(=O)N[C@@H](Cc1ccccc1)C(=O)N[C@@H](CC(=O)O)C(=O)N[C@@H](CO)C(=O)N[C@H](C(N)=O)C(C)C)[C@@H](C)CC

How the values were obtained:
[1] = test system: rat anterior pituitary cells; experiment: ACTH secretion by anterior pituitary cell cultures in the presence of a challenge dose of ovine CRF (antagonist test); format: cell-based; conditions: for bioactivity as Ucn antagonists: result in words, test not specified
Excerpt: (§1) A straightforward assay using rat anterior pituitary cells in monolayer culture can be carried out to determine whether a candidate peptide thereof will function as a CRF agonist and stimulate ACTH secretion by activating CRF receptors on such cells. The procedure which is used is that generally set forth in Endocrinology, 91, supra. A very similar assay is used to test for antagonistic properties, using a challenge dose of oCRF or the like.
An in vivo test measuring elevation of mean arterial blood pressure as a result of iv injection is also simply and straightforwardly performed.

[2] = test system: mammalian mean arterial blood pressure; experiment: in vivo test measuring elevation of mean arterial blood pressure as a result of iv injection; conditions: result in words; indicative of a Ucn antagonist
Excerpt: The peptide, Ucn(11-40), having the amino acid sequence (see SEQ ID NO: 8): […] is synthesized in the manner described in Example I. To evaluate the biological activity of a candidate peptide as a Ucn antagonist (which will be indicative of its effective binding to CRF receptors), the previously mentioned assay from Endocrinology, 91, supra, is run in the presence of a challenge dose of ovine CRF. […] An in vivo test measuring elevation of mean arterial blood pressure as a result of iv injection is also simply and straightforwardly performed.

[3] = test system: primary murine anterior pituitary cells; format: cell-based; conditions: for stimulates the secretion of ACTH and β-END-LI (β-endorphin): result in words; for ACTH secretion in vitro, times as effective as r/hCRF (confidence limits): anterior pituitary cell cultures, relative to r/hCRF
Excerpt: as §1
To test the ability of purified Ucn or another candidate Ucn-like peptide to function as a CRF agonist and to promote ACTH production and/or secretion, cultures of dispersed primary murine anterior pituitary cells (0.15×10^6 cells/well are used), as generally described in Vale et al. Meth. Enzym., 103, 565-577 (1983), and in Endocrinology, 91, 562 (1972). These cultures are maintained in 0.5 ml/well of β-PJ (a reagent available from Kansas City Biochemicals) containing 2% fetal bovine serum. On the morning of culture day 5, the cells are washed 3 times with β-PJ containing 0.1% bovine serum albumin and then incubated for 1 hour at 37° C. in the same medium. The medium is then replaced with Ucn, or an analog thereof, diluted in β-PJ containing 0.1% bovine serum albumin. Incubations are terminated after 3 hours, at which time the medium is removed and stored at −20° C. until ACTH radioimmunoassays are performed using a suitable kit, such as that commercially available from Diagnostic Products Corporation of Los Angeles, Calif. Secreted ACTH is measured using Allfit computer program with results expressed as the average±s.e.m. of 3 replicate bioassays.

[4] = test system: mammalian systemic blood pressure; experiment: mammalian vasodilatory-hypotensive activity; format: in vivo; conditions: result in words
[5] = target: CRF receptors on anterior pituitary cells in culture; experiment: cell-based or functional assay

Row | Molecule | vasodilatory-hypotensive activity, including lowering systemic blood pressure and stimulating the secretion of ACTH [4] | ACTH secretion in vitro, times as effective as r/hCRF (confidence limits) [3] | also measured
1 | H-D-Phe-His-Leu-Leu-Arg-Thr-Leu-Leu-Glu-Leu-Ala-Arg-Thr-Gln-Ser-Gln-Arg-Glu-Glu-Ala-D-Glu-Lys-Asn-Arg-Ile-Ile-Phe-Asp-Ser-Val-NH2 (H-[dF]HLLRTLLELARTQSQREEA[dE]KNRIIFDSV-NH2; lactam 19-22 (inferred)) | – | – | inhibition of ACTH secretion in vitro, times as effective as the Standard Antagonist (confidence limits) ([1]; challenge dose of ovine CRF, relative to [D-Phe12,Nle21,38]-r/hCRF(12-41)): 4.72 (2.19-10.00); vasoconstrictive activity causing elevation of mean arterial blood pressure [2]: significant mammalian vasoconstrictive activity
2 | Ac-Pro-Ser-Leu-Ser-Ile-Asp-Leu-Thr-Phe-His-Leu-Leu-Arg-Thr-Leu-Leu-Glu-Leu-Ala-Arg-Thr-Gln-Ser-Gln-Arg-Glu-Arg-Ala-Glu-Gln-Asn-Arg-Ile-Ile-Phe-Asp-Ser-Val-NH2 (Ac-PSLSIDLTFHLLRTLLELARTQSQRERAEQNRIIFDSV-NH2) [[Ac-Pro^3]-hUcn(3-40)] | causes vasodilatory-hypotensive activity | – | stimulates the secretion of ACTH and β-END-LI (β-endorphin) [3]: stimulates the secretion of ACTH and β-END-LI
3 | Ac-Pro-Ser-Leu-Ser-Ile-Asp-Leu-Thr-D-Phe-His-Leu-Leu-Arg-Thr-Leu-Leu-Glu-Leu-Ala-Arg-Thr-Gln-Ser-Gln-Arg-Glu-Glu-Ala-D-Glu-Lys-Asn-Arg-Ile-Ile-Phe-Asp-Ser-Val-NH2 (Ac-PSLSIDLT[dF]HLLRTLLELARTQSQREEA[dE]KNRIIFDSV-NH2; lactam 27-30 (inferred)) | causes vasodilatory-hypotensive activity | 6.14 (2.83-14.05) | stimulates the secretion of ACTH and β-END-LI (β-endorphin) [3]: stimulates the secretion of ACTH and β-END-LI
4 | [Ac-Thr^10]Ucn(10-40) | – | – | bioactivity as Ucn antagonists [1]: bioactivity as Ucn antagonists
5 | H-Asp-Asn-Pro-Ser-Leu-Ser-Ile-Asp-Leu-Thr-Phe-His-Leu-Leu-Arg-Thr-Leu-Leu-Glu-Leu-Ala-Arg-Thr-Gln-Ser-Gln-Arg-Glu-Arg-Ala-Glu-Gln-Asn-Arg-Ile-Ile-Phe-Asp-Ser-Val-NH2 (H-DNPSLSIDLTFHLLRTLLELARTQSQRERAEQNRIIFDSV-NH2) [Human Ucn(1-40)] | significant mammalian vasodilatory-hypotensive activity | 3.10 (1.41-6.65) | –
6 | Ucn (10-40) (TFHLLRTLLELARTQSQRERAEQNRIIFDSV; ends and bridges not checked; UniProt P55089 92-122, looked up, fragment) | – | – | bioactivity as Ucn antagonists [1]: bioactivity as Ucn antagonists
7 | H-[dY]DNPSLSIDLTFHLLRTLLELARTQSQRERAEQNRIIFDSV-NH2 [[D-Tyr^∘]hUcn(1-40)] | significant mammalian vasodilatory-hypotensive activity | 1.23 (0.60-2.54) | –
8 | Ac-Pro-D-Pro-Leu-Ser-Ile-Asp-Leu-Thr-D-Phe-His-Leu-Leu-Arg-Thr-Leu-Leu-Glu-Leu-Ala-Arg-Thr-Gln-Ser-Gln-Arg-Glu-Glu-Ala-Glu-Lys-Asn-Arg-Ile-Ile-Phe-Asp-Ser-Val-NH2 (Ac-P[dP]LSIDLT[dF]HLLRTLLELARTQSQREEAEKNRIIFDSV-NH2; lactam 27-30 (inferred)) | causes vasodilatory-hypotensive activity | 9.90 (4.48-22.85) | stimulates the secretion of ACTH and β-END-LI (β-endorphin) [3]: stimulates the secretion of ACTH and β-END-LI
9 | H-DNPSLSIDLT[dF]HLLRTLLELARTQSQRERAEQNRIIFDSV-NH2 [[D-Phe^11]-hUcn] | significant mammalian vasodilatory-hypotensive activity | – | –
10 | H-Tyr-Asp-Asp-Pro-Pro-Leu-Ser-Ile-Asp-Leu-Thr-Phe-His-Leu-Leu-Arg-Thr-Leu-Leu-Glu-Leu-Ala-Arg-Thr-Gln-Ser-Gln-Arg-Glu-Arg-Ala-Glu-Gln-Asn-Arg-Ile-Ile-Phe-Asp-Ser-val-NH2 [[Tyr^∘]rUcn(1-40)] | significant mammalian vasodilatory-hypotensive activity | 2.20 (1.28-3.88) | –
11 | Ac-Pro-D-Ser-Leu-Ser-Ile-Asp-Leu-Thr-D-Phe-His-Leu-Leu-Arg-Thr-Leu-Leu-Glu-Leu-Ala-Arg-Thr-Gln-Ser-Gln-Arg-Glu-Glu-Ala-Glu-Lys-Asn-Arg-Ile-Ile-Phe-Asp-Ser-Val-NH2 (Ac-P[dS]LSIDLT[dF]HLLRTLLELARTQSQREEAEKNRIIFDSV-NH2; lactam 27-30 (inferred)) | causes vasodilatory-hypotensive activity | 5.69 (2.43-14.49) | stimulates the secretion of ACTH and β-END-LI (β-endorphin) [3]: stimulates the secretion of ACTH and β-END-LI
12 | H-Asn-Pro-Ser-Leu-Ser-Ile-Asp-Leu-Thr-Phe-His-Leu-Leu-Arg-Thr-Leu-Leu-Glu-Leu-Ala-Arg-Thr-Gln-Ser-Gln-Arg-Glu-Arg-Ala-Glu-Gln-Asn-Arg-Ile-Ile-Phe-Asp-Ser-Val-NH2 (H-NPSLSIDLTFHLLRTLLELARTQSQRERAEQNRIIFDSV-NH2) [hUcn(2-40)] | significant mammalian vasodilatory-hypotensive activity | – | –
13 | B1 | – | – | antagonism of ACTH secretion under a challenge dose of ovine CRF, potency relative to the Standard Antagonist (times Standard Antagonist) [5]: 2.74
14 | B2 | – | – | antagonism of ACTH secretion under a challenge dose of ovine CRF, potency relative to the Standard Antagonist (times Standard Antagonist) [5]: 4.99
